Converted amounts (≈) assume the structure as drawn. Like-named read-outs stand apart in the source and are kept apart here. *1 amine or outer side, *2 acyl side, *3 side chain or, on linkers, in order; H or OH if unused. Where a SMILES comes first, the peptide text is derived from it. Bridges are numbered along the chain shown (N, C = ends). [ ]: non-standard residue; d: D form. The star is where a group is joined. Orn(4R-OH,5R-OCH2CH2NMe3+) = C[N+](C)(C)CCO[C@@H](N[*:3])[C@H](O)C[C@H](N[*:1])C(=O)[*:2]; pTerphenylCO(4''-OnC5H11) = CCCCCOc1ccc(-c2ccc(-c3ccc(C(=O)*)cc3)cc2)cc1; Orn(4R-OH,5R-OH) = O=C([C@H](C[C@@H](O)[C@@H](O)N[*:3])N[*:1])[*:2]; hTyr(3S-OH,4S-OH) = N[C@H](C(=O)O)[C@H](O)[C@@H](O)c1ccc(O)cc1; Pro(3S-OH,4S-Me) = C[C@H]1CN[C@H](C(=O)O)[C@H]1O; Hyp = O=C(O)[C@@H]1C[C@@H](O)CN1
Columns and labels:
[1] = test system: Aspergillus ochraceus ATCC 96919; assay: CLSI broth microdilution (M38-A2) MEC/MIC; format: cell-based; conditions: 48 h, stunted hyphal growth
Experimental: (§1) All yeast and mold isolates were obtained from the American Type Culture Collection (ATCC). Isolates were plated on an agar medium to verify purity, and single colonies were picked. Aspergillus isolates were resubcultured on potato dextrose slants and incubated for 7 days at 35°C. Candida isolates were streaked on SDA plates and incubated for 24 h at 35°C. RPMI 1640 medium (HyClone Laboratories, Logan, UT) and the inoculum for each organism were prepared according to Clinical and Laboratory Standards Institute (CLSI) guidelines ([27][–][29]). Stock solutions for all test articles were prepared in 100% dimethyl sulfoxide (DMSO). Susceptibility testing was performed using CLSI broth microdilution methods for Candida (M27-A3) and Aspergillus (M38-A2). Amphotericin B was tested at a range of 0.06 to 64 μg/ml; all other antifungal agents were tested at 0.015 to 16 μg/ml. Plates were incubated at 35°C and were read from the bottom using a plate viewer after 24 and 48 h for Candida and after 48 h for Aspergillus. MIC values are reported as the lowest drug concentration to yield a 50% reduction in the growth of Candida species tested compared to the control well. Minimum effective concentration (MEC) values are reported as the lowest drug concentration to yield the stunted hyphal growth of Aspergillus species tested compared to that of the control well.

[2] = test system: Aspergillus niger ATCC 16888; assay: CLSI broth microdilution (M38-A2) MEC/MIC; format: cell-based; conditions: 48 h, stunted hyphal growth
Experimental: as §1

[3] = test system: Aspergillus fumigatus ATCC MYA-3626; assay: CLSI broth microdilution (M38-A2) MEC/MIC; format: cell-based; conditions: 48 h, stunted hyphal growth
Experimental: as §1

[4] = test system: Aspergillus fumigatus ATCC 204305; assay: CLSI broth microdilution (M38-A2) MEC/MIC; format: cell-based; conditions: 48 h, stunted hyphal growth
Experimental: as §1

[5] = test system: Aspergillus flavus ATCC 22546; assay: CLSI broth microdilution (M38-A2) MEC/MIC; format: cell-based; conditions: 48 h, stunted hyphal growth
Experimental: as §1

[6] = test system: Aspergillus candidus ATCC 13686; assay: CLSI broth microdilution (M38-A2) MEC/MIC; format: cell-based; conditions: 48 h, stunted hyphal growth
Experimental: as §1

[7] = test system: Aspergillus spp.; assay: CLSI broth microdilution (M38-A2) MEC, whole panel; format: cell-based; conditions: 48 h, summary of Table 3
Experimental: as §1

[8] = test system: Aspergillus clavatus ATCC 10058; assay: CLSI broth microdilution (M38-A2) MEC/MIC; format: cell-based; conditions: read at 68 h, stunted hyphal growth
Experimental: as §1, with “Plates were incubated at 35°C and were read from the bottom using a plate viewer after 24 and 48 h for Candida and after 48 h for Aspergillus.” left out

[9] = test system: Candida tropicalis ATCC 90874; assay: CLSI broth microdilution (M27-A3) MIC; format: cell-based; conditions: 50% reduction in growth
Experimental: as §1

[10] = test system: Candida glabrata ATCC 90030; assay: CLSI broth microdilution (M27-A3) MIC; format: cell-based; conditions: Nakaseomyces glabratus, ATCC90030, 50% reduction in growth, read-out: MIC
Experimental: as §1

[11] = test system: Candida guilliermondii ATCC 34134; assay: CLSI broth microdilution (M27-A3) MIC; format: cell-based; conditions: Meyerozyma guilliermondii, ATCC34134, 50% reduction in growth
Experimental: as §1

[12] = test system: Candida parapsilosis ATCC 22019; assay: CLSI broth microdilution (M27-A3) MIC; format: cell-based; conditions: Lodderomyces parapsilosis, ATCC22019, 50% reduction in growth
Experimental: as §1

[13] = test system: Candida lusitaniae ATCC 34134; assay: CLSI broth microdilution (M27-A3) MIC; format: cell-based; conditions: Clavispora lusitaniae
Experimental: as §1

[14] = test system: Candida krusei ATCC 14243; assay: CLSI broth microdilution (M27-A3) MIC; format: cell-based; conditions: Pichia kudriavzevii, ATCC14243, 50% reduction in growth
Experimental: as §1

[15] = test system: Candida albicans ATCC 90028; assay: CLSI broth microdilution (M27-A3) MIC; format: cell-based; conditions: 50% reduction in growth
Experimental: as §1

[16] = single-dose pharmacokinetics in beagle dogs; conditions: male, dog, in vivo, iv
Experimental: Four male, nonnaive beagle dogs received a single i.v. infusion (1.4 mg/kg) of test article over 10 min via a catheter placed in the cephalic vein. Blood draws (1.0 ml) were taken at 0.083, 0.33, 0.75, 1.5, 4.5, 12, 24, and 48 h. An additional blood draw at 72 h was obtained for CD101. Blood draws were taken from the jugular vein and were collected into K3 EDTA tubes. Following blood collection, the samples were immediately inverted several times and were held on wet ice pending centrifugation. The samples were centrifuged within ∼30 min of collection under refrigeration (∼5°C for ∼10 min at ∼2,000 g) to obtain plasma. The plasma samples were frozen immediately on dry ice after separation and were stored at approximately −70°C until analysis. Levels of test article in the plasma samples were measured by quantitative liquid chromatography-tandem mass spectrometry (LC-MS/MS) analysis compared to a calibration curve and an internal standard. Pharmacokinetic parameters were calculated from the plasma concentration-time data using standard noncompartmental methods and utilizing WinNonlin analysis software.

[17] = test system: Candida albicans R303; assay: mouse model of disseminated candidiasis, fungal burden in kidneys; format: in vivo; conditions: kidneys at 24 h; for reductions in fungal burden vs infected control (statistical significance): neutropenic CD-1 mice, 0.5, 1.5 or 4.5 mg/kg 2 h after inoculation
Experimental: Candida albicans R303 was grown on Sabouraud dextrose agar (SDA) plates for 24 h at 35°C. Colonies were transferred to phosphate-buffered saline (PBS) and diluted to 3.8 × 10^5 CFU/ml. Female CD-1 mice (Charles River Laboratories, Portage, MI) were rendered neutropenic via injection with cyclophosphamide (150 mg/kg) 5 days and 2 days prior to inoculation. Each animal was infected by injecting 0.1 ml of inoculum into the tail vein. In the treatment groups, animals received 0.5, 1.5, or 4.5 mg/kg of test article 2 h after inoculation. Two groups of untreated, infected controls were used to evaluate fungal burden: at 2 h when test articles were administered in the treatment groups and at 24 h when the treatment groups were sacrificed. Kidneys were harvested at 2 h in one untreated control group and at 24 h in all other groups. The kidneys were homogenized in 2 ml of sterile phosphate-buffered saline, and 0.1-ml aliquots were spread on SDA plates and incubated at 35°C overnight. Fungal burden was determined based on the log10 C. albicans CFU counts from paired kidneys. Data were analyzed using a one-way analysis of variance (ANOVA) and the Dunnett multiple comparisons test comparing the test articles to the infected control group (GraphPad InStat version 3.1; GraphPad Software, San Diego, CA).

[18] = humans, clinical trials ref 22; cited from earlier work
[19] = beagle dogs, single i.v. 1.4 mg/kg, 10-min slow bolus
[20] = beagle dogs, single i.v. 1.4 mg/kg, 10-min slow bolus, read-out: V (volume of distribution)
[21] = beagle dogs, single i.v. 1.4 mg/kg, 10-min slow bolus, read-out: t1/2 (converted)
[22] = ATCC34134, 24 h, 50% reduction in growth, read-out: MIC
[23] = ATCC34134, 48 h, 50% reduction in growth, read-out: MIC

CCCCCOc1ccc(-c2ccc(-c3ccc(C(=O)N[C@H]4C[C@@H](O)[C@@H](O)NC(=O)[C@@H]5[C@@H](O)[C@@H](C)CN5C(=O)[C@H]([C@@H](C)O)NC(=O)[C@H]([C@H](O)[C@@H](O)c5ccc(O)cc5)NC(=O)[C@@H]5C[C@@H](O)CN5C(=O)[C@H]([C@@H](C)O)NC4=O)cc3)cc2)cc1 [Anidulafungin, anidulafungin] ({pTerphenylCO(4''-OnC5H11)}-[Orn(4R-OH,5R-OH)]T[Hyp][hTyr(3S-OH,4S-OH)]T[Pro(3S-OH,4S-Me)]; lactam 1-C)
MEC [1]: 0.03 µg/mL
MEC [2]: ≤0.015 µg/mL
MEC [3]: ≤0.015 µg/mL
MEC [4]: ≤0.015 µg/mL
MEC [5]: ≤0.015 µg/mL
MEC [6]: ≤0.015 µg/mL
MEC values against all Aspergillus species tested [7]: below 0.03 μg/ml
MEC [8]: ≤0.015 µg/mL
MIC ([9]; ATCC90874, 24 h): ≤ 0.015 µg/mL
MIC ([9]; ATCC90874, 48 h): ≤ 0.015 µg/mL
MIC ([10]; 24 h): 0.03 µg/mL (≈ 0.0263 µM)
MIC ([10]; 48 h): 0.03 µg/mL (≈ 0.0263 µM)
MIC ([11]; 24 h): 1 µg/mL (≈ 0.877 µM)
MIC ([11]; 48 h): 2 µg/mL (≈ 1.75 µM)
MIC ([12]; 24 h): 0.5 µg/mL (≈ 0.438 µM)
MIC ([12]; 48 h): 0.5 µg/mL (≈ 0.438 µM)
MIC ([13]; ATCC34134, 24 h): 0.125 µg/mL (≈ 0.11 µM)
MIC ([13]; ATCC34134, 48 h): 0.125 µg/mL (≈ 0.11 µM)
MIC ([14]; 24 h): 0.03 µg/mL (≈ 0.0263 µM)
MIC ([14]; 48 h): 0.06 µg/mL (≈ 0.0526 µM)
MIC ([15]; ATCC90028, 24 h): ≤ 0.015 µg/mL
MIC ([15]; ATCC90028, 48 h): ≤ 0.015 µg/mL
clearance [16, 19]: 0.783 mL/min/kg
Vd [16, 20]: 0.779 L/kg
half-life [16, 21]: 11.6 h

CCCCCOc1ccc(-c2ccc(-c3ccc(C(=O)N[C@H]4C[C@@H](O)[C@@H](OCC[N+](C)(C)C)NC(=O)[C@@H]5[C@@H](O)[C@@H](C)CN5C(=O)[C@H]([C@@H](C)O)NC(=O)[C@H]([C@H](O)[C@@H](O)c5ccc(O)cc5)NC(=O)[C@@H]5C[C@@H](O)CN5C(=O)[C@H]([C@@H](C)O)NC4=O)cc3)cc2)cc1 [CD101] ({pTerphenylCO(4''-OnC5H11)}-[Orn(4R-OH,5R-OCH2CH2NMe3+)]T[Hyp][hTyr(3S-OH,4S-OH)]T[Pro(3S-OH,4S-Me)]; lactam 1-C)
MEC [1]: 0.03 µg/mL
MEC [2]: ≤0.015 µg/mL
MEC [3]: ≤0.015 µg/mL
MEC [4]: ≤0.015 µg/mL
MEC [5]: ≤0.015 µg/mL
MEC [6]: ≤0.015 µg/mL
MEC values against all Aspergillus species tested [7]: below 0.03 μg/ml
reductions in fungal burden vs infected control (statistical significance) [17]: statistically significant (P < 0.01) reductions in fungal burden at all doses
fungal burden relative to limit of detection ([17]; neutropenic CD-1 mice, 0.5, 1.5 or 4.5 mg/kg): below the limit of detection for at least one of the doses
MEC [8]: 0.03 µg/mL
half-life in clinical trials [18]: > 80 h
MIC ([9]; ATCC90874, 24 h): ≤ 0.015 µg/mL
MIC ([9]; ATCC90874, 48 h): ≤ 0.015 µg/mL
MIC ([10]; 24 h): 0.03 µg/mL
MIC ([10]; 48 h): 0.03 µg/mL
MIC ([11]; 24 h): 0.5 µg/mL
MIC ([11]; 48 h): 2 µg/mL
MIC ([12]; 24 h): 0.5 µg/mL
MIC ([12]; 48 h): 1 µg/mL
MIC [13, 22]: 0.25 µg/mL
MIC [13, 23]: 0.25 µg/mL
MIC ([14]; 24 h): 0.03 µg/mL
MIC ([14]; 48 h): 0.03 µg/mL
MIC ([15]; ATCC90028, 24 h): 0.03 µg/mL
MIC ([15]; ATCC90028, 48 h): 0.03 µg/mL
clearance [16, 19]: 0.317 mL/min/kg
Vd [16, 20]: 1.36 L/kg
half-life [16, 21]: 53.1 h

CCCCCOc1ccc(-c2ccc(-c3ccc(C(=O)N[C@H]4C[C@@H](O)[C@@H](NCC[N+](C)(C)C)NC(=O)[C@@H]5[C@@H](O)[C@@H](C)CN5C(=O)[C@H]([C@@H](C)O)NC(=O)[C@H]([C@H](O)[C@@H](O)c5ccc(O)cc5)NC(=O)[C@@H]5C[C@@H](O)CN5C(=O)[C@H]([C@@H](C)O)NC4=O)cc3)cc2)cc1 [Compound 6]
MEC [1]: 0.03 µg/mL
MEC [2]: ≤0.015 µg/mL
MEC [3]: ≤0.015 µg/mL
MEC [4]: ≤0.015 µg/mL
MEC [5]: ≤0.015 µg/mL
MEC [6]: ≤0.015 µg/mL
MEC values against all Aspergillus species tested [7]: below 0.03 μg/ml
reductions in fungal burden vs infected control (statistical significance) [17]: statistically significant (P < 0.01) reductions in fungal burden at all doses
MEC [8]: 0.03 µg/mL
MIC ([9]; ATCC90874, 24 h): ≤ 0.015 µg/mL
MIC ([9]; ATCC90874, 48 h): ≤ 0.015 µg/mL
MIC ([10]; 24 h): 0.03 µg/mL
MIC ([10]; 48 h): 0.03 µg/mL
MIC ([11]; 24 h): 0.5 µg/mL
MIC ([11]; 48 h): 1 µg/mL
MIC ([12]; 24 h): 0.25 µg/mL
MIC ([12]; 48 h): 0.5 µg/mL
MIC [13, 22]: 0.25 µg/mL
MIC [13, 23]: 0.25 µg/mL
MIC ([14]; 24 h): 0.03 µg/mL
MIC ([14]; 48 h): 0.03 µg/mL
MIC ([15]; ATCC90028, 24 h): 0.03 µg/mL
MIC ([15]; ATCC90028, 48 h): 0.03 µg/mL
Vd ([16]; beagle, 1.4 mg/kg): 0.874 L/kg
half-life ([16]; beagle, 1.4 mg/kg): 27.6 h
